Measured values taken from doi:10.1101/2025.09.24.678246 (bioRxiv, 2025).
pKi: −log10 of the molar value. Values joined by “and” are separate entries in the source; they are usually repeats but may differ in a detail not shown here. Equal values may be shown once. Read-outs that look alike come from different tables or passages of the source.

Legend:
HT-29 = conditions: 48 h; for Growth compared to DMSO control (%): HT-29 cell
[1] = p.o.; for C48 in Plasma / C48 in lung: CD-1 mice
E. faecium ATCC 19434 = assay: MIC screening: E. faecium
Description: (§1) MIC measurements were based on a method previously described[6]. Overnight liquid cultures of E. coli BW, E. coli C0244, A. baumannii ATCC 17978, K. pneumoniae ATCC 43816, P. aeruginosa PA01 and E. faecium ATCC 19434 strains were inoculated with a single colony from a freshly streaked agar plate of the corresponding bacterial strain and cultured in M9 minimal medium supplemented with amino acids[6]. The bacterial culture was prepared by washing 1 mL of overnight culture in PBS pH 7.4 (x3), then diluted to OD600 = 0.5 and used to inoculate 1:1000 in M9 minimal medium with amino acids in 96-well plates. Compounds were added to 96-well plates in two-fold serial dilutions. The plates were incubated stationary at 37 °C for 18 h, then OD600 was measured. […] The assay was performed in duplicate.

[2] = test system: ESKAPE panel of pathogens; assay: MIC screening against the ESKAPE panel (summary)
Description: as §1

E. coli = assay: MIC screening against Gram-negative pathogens: E. coli
Description: as §1

S. aureus = assay: MIC screening: S. aureus; format: cell-based
Description: Supplement media-1.docx, table 4: Supplemental Table S4. MIC screening of C48 against a panel of pathogens and strains | column: C48 MIC (µM)^b

WT H37Rv = assay: Time-kill kinetics in GAST medium; format: cell-based, Mycobacterium tuberculosis; conditions: for OD580 of C48 kill kinetics: 10µM C48, GAST medium
K. pneumoniae ATCC 43816 = assay: MIC screening against Gram-negative pathogens: K. pneumoniae
Description: as §1

BioA = BioA (Mycobacterium tuberculosis, UniProt P9WQ81); assay: BioA Ki determination (tight binding, Morrison equation, 5 nM BioA); format: biochemical; conditions: 5 nM BioA, Morrison analysis; read-out: BioA inhibition constant (Ki)
Sequence of BioA (P9WQ81 whole entry, looked up): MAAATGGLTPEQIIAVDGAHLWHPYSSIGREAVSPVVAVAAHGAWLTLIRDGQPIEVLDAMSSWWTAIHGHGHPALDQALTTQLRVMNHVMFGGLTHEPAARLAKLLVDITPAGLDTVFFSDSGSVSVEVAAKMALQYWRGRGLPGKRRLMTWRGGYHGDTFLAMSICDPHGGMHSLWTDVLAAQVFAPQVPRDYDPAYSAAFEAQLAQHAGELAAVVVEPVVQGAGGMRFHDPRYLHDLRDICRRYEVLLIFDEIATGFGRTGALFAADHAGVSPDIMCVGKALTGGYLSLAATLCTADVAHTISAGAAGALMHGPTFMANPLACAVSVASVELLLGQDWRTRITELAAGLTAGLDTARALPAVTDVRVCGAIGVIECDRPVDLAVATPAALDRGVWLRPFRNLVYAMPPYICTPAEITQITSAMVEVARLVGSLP

SMILES: O=C1CCc2cc(N3CCN(C(=O)c4ccc(F)c(Br)c4)CC3)ncc21 [C48]
- Growth compared to DMSO control (%) (HT-29; 3.13 μM): 103.339% and 102.14% and 102.153%
- Growth compared to DMSO control (%) (HT-29; 6.25 μM): 105.34% and 100.609% and 100.571%
- Growth compared to DMSO control (%) (HT-29; 12.5 μM): 103.832% and 99.2439% and 99.2304%
- Growth compared to DMSO control (%) (HT-29; 25 μM): 102.371% and 98.4085% and 97.2044%
- Growth compared to DMSO control (%) (HT-29; 50 μM): 101.665% and 97.1295% and 96.4305%
- Growth compared to DMSO control (%) (HT-29; 100 μM): 100.396% and 97.8669% and 97.7498%
- cytotoxicity toward HT-29 (HT-29; concentrations up to 100 μM): no cytotoxicity
- delivery into the lungs [1]: efficiently delivered into the lungs
- C48 in Plasma ([1]; 0 hr): 0 ng/mL
- C48 in lung ([1]; 0 hr): 0 ng/mL
- C48 in Plasma ([1]; 1 hr): 17400 ng/mL and 12000 ng/mL and 17900 ng/mL
- C48 in lung ([1]; 1 hr): 11264.6 ng/mL and 8012.8 ng/mL and 9904.4 ng/mL
- C48 in Plasma ([1]; 3 hr): 7710 ng/mL and 11800 ng/mL and 12100 ng/mL
- C48 in lung ([1]; 3 hr): 3273.1 ng/mL and 5600.4 ng/mL and 5866.1 ng/mL
- MIC (E. faecium ATCC 19434): inactive
- activity against the entire ESKAPE panel [2]: inactive
- MIC (E. coli; E. coli BW): inactive
- MIC (E. coli; E. coli C0244): inactive
- MIC (S. aureus): inactive
- rate of CFU decline (WT H37Rv; 10 μM, biotin-free medium, after about three doublings): one log10 CFU per week
- OD580 of C48 kill kinetics (WT H37Rv; day 0): 0.001
- OD580 of C48 kill kinetics (WT H37Rv; day 2): 0.004
- OD580 of C48 kill kinetics (WT H37Rv; day 4): 0.008
- OD580 of C48 kill kinetics (WT H37Rv; day 8): 0.01
- OD580 of C48 kill kinetics (WT H37Rv; day 11): 0.016
- OD580 of C48 kill kinetics (WT H37Rv; day 14): 0.012
- OD580 of C48 kill kinetics (WT H37Rv; day 16): 0.012
- OD580 of C48 kill kinetics (WT H37Rv; day 18): 0.012
- OD580 of C48 kill kinetics (WT H37Rv; day 21): 0.01
- OD580 of C48 kill kinetics (WT H37Rv; day 23): 0.01
- OD580 of C48 kill kinetics (WT H37Rv; day 25): 0.01
- OD580 of C48 kill kinetics (WT H37Rv; day 28): 0.008
- OD580 of C48 kill kinetics (WT H37Rv; day 32): 0.008
- OD580 of C48 kill kinetics (WT H37Rv; day 35): 0.008
- OD580 of C48 kill kinetics (WT H37Rv; day 39): 0.008
- OD580 of C48 kill kinetics (WT H37Rv; day 42): 0.008
- OD580 of C48 kill kinetics (WT H37Rv; day 46): 0.008
- OD580 of C48 kill kinetics (WT H37Rv; day 49): 0.008
- OD580 of C48 kill kinetics (WT H37Rv; day 53): 0.008
- OD580 of C48 kill kinetics (WT H37Rv; day 56): 0.008
- OD580 of C48 kill kinetics (WT H37Rv; day 60): 0.008
- OD580 of C48 kill kinetics (WT H37Rv; day 63): 0.008
- OD580 of C48 kill kinetics (WT H37Rv; day 67): 0.008
- MIC (K. pneumoniae ATCC 43816): inactive
- plasma concentration, dose escalation (50 mg/kg p.o. for 4 days, 1 hr): 61800 and 52800 and 56400
- plasma concentration, dose escalation (50 mg/kg p.o. for 4 days, 24 hr): 12.4 and 12.1 and 9.65
- plasma concentration, dose escalation (100 mg/kg p.o. for 4 days, 0 hr): 14 and 10 and 13
- plasma concentration, dose escalation (100 mg/kg p.o. for 4 days, 1 hr): 112000 and 72300 and 72800
- plasma concentration, dose escalation (200 mg/kg p.o. for 4 days, 0 hr): 16 and 17 and 26
- plasma concentration, dose escalation (200 mg/kg p.o. for 4 days, 1 hr): 74500 and 50900 and 86400
- plasma concentration, dose escalation (200 mg/kg p.o. for 4 days, 5 hr): 57700 and 39600 and 50300
- tolerability in dose escalation (p.o. 50-200 mg/kg for 4 days): well tolerated
- oral absorption in dose escalation (p.o. up to 200 mg/kg): linear oral absorption
- pKi (BioA): 9.70
